“Also recorded” adds a separate entry of the source.
How the values were obtained:
[1] = tested on: Organoid cultures derived from LSL-K-Ras^G12D pancreata not treated by an Adeno-Cre virus; format: cell-based; details: no Adeno-Cre virus (Kras not activated)
Panc1 cells [2] = experiment: Soft agar assay, human cells; format: cell-based; details: human cancer cells (Panc1)
[3] = tested on: CD44+CD24+EpCAM+ population of Panc1 and BxPC3 cells; experiment: Flow cytometry (FACS) of cancer stem cell population; format: cell-based, human; details: for CD44+CD24+EpCAM+ cancer stem cell population (FACS): human pancreatic cancer cells, 72 hours pilocarpine
Procedure: Panc-1 cells were grown in 6-well plate to around ˜70% confluent, changed the 0.5% FBS medium, added the drugs respectively and incubated them for further 72 hrs incubation in a typical CO2 incubator (˜20% O2). Afterwards, cells were kept on ice in blocking solution (PBS pH 7.2 containing ? 3% bovine serum albumin, 2 mM EDTA) for 20 minutes. Cells were then stained with a PE-conjugated antibody against CD24, a FITC-conjugated antibody against CD44, and an APC-conjugated antibody against CD326 (1:100—in blocking solution) on ice for 30 minutes. The cells were then washed, reconstituted in sorting buffer (PBS pH 7.2 containing 0.5% bovine serum albumin, 2 mM EDTA)+DAPI and analyzed using a BD FACSAria II.
Panc1 and BxPC3 cells were grown in 6-well plate to ˜70% confluency, the media was changed to 0.5% FBS medium, the respective drugs were added, and they were incubated for an additional 72 hrs in a typical CO2 incubator (˜5% CO2). Subsequently, cells were kept on ice in blocking solution (PBS pH 7.2 containing 3% bovine serum albumin, 2 mM EDTA) for 20 minutes. Cells were then stained with a PE-conjugated antibody against CD24, a FITC-conjugated antibody against CD44, and an APC-conjugated antibody against CD326 (1:100 in blocking solution) on ice for 30 minutes. The cells were then washed, reconstituted in sorting buffer (PBS pH 7.2 containing 0.5% bovine serum albumin, 2 mM EDTA)+DAPI and analyzed using a BD FACSAria II.

CHRM1 = experiment: qRT-PCR of muscarinic receptor expression, human PDAC cell lines; format: cell-based; details: human PDAC cell lines (MiaPaca2 and Panc1), compared to control
Panc1 cells [4] = experiment: RNAseq of Panc1 cells after pilocarpine treatment; format: cell-based, human
Procedure: Panc1 cells were lysed in RNA lysis buffer supplied in […] PicoPure RNA isolation kit (Life Technologies)(n=4). Total RNA was isolated in accordance with the manufacturer's protocol. cDNA was amplified and libraries were constructed by using SMARTer Ultra Low Input RNA Kit (Clontech Laboratories) and Nextera XT DNA Library Preparation Kit (Illumina) according to the respective manufacturer's instructions. Sequencing was performed with Hiseq 2500 (Illumina) (30 M 100 bp single end reads per sample). Sequenced reads were mapped to the NCBI annotated genes of the […] with BowTie2 and TopHat 2.0.4^5, 6. Reads were counted with HTSeq. Expression datasets were deposited in the Gene Expression Omnibus (GEO)^7 (GSE102880 code: armlggayprundsh). Samples were normalized with the TMM algorithm. The statistical significance of differential expression was estimated with weighted Limma-Voom^8, 9 which runs under Bioconductor/R^10-12. […] First, a screen in terms of Gene Ontology^14 categories for consistency with phenotype was performed. Genes were retained which either: 57 genes fulfilled these requirements, these genes were analyzed further in terms of KEGG pathways^15 with iPathwayGuide^16, 17

KPC mice = KPC mice with established PDAC treated with gemcitabine with or without bethanechol; format: in vivo, mouse; details: for overall survival (in words): KPC mice with established PDAC, bethanechol + GEM vs GEM alone
Source text: Next, the role of cholinergic signaling in advanced pancreatic cancer was investigated using the genetically engineered KPC (K-Ras^+/LSL-G12D;p53^+/R172H;Pdx-1-Cre) mouse model, which develops ductal adenocarcinoma by 17-19 weeks (Olive et al., 2009, Hingorani et al., 2005).
K-Ras^+/LSL-G12D, p53^+/R172H, and Pdx-1-Cre mice were provided by Dr. Kenneth Olive (Columbia University). M1RKO mice were purchased from the Jackson Laboratory. KC mice and KPC mice were crossed with M1RKO mice. For several experiments, KC mice received pyloroplasty with or without vagotomy at 8 weeks and KC+VxPP mice were treated with or without bethanechol (400 μg/ml) after surgery immediately. They were sacrificed at 20 weeks. In addition, KPC mice were treated with gemcitabine biweekly and with or without bethanechol when the tumor size of 3-5 mm detected using ultrasound. They were sacrificed when the mice were moribund. For liver metastatic experiments, WT type C57/B6 mice received spleen injection and hemi-splenectomy. […] They were sacrificed when the mice were moribund.
Next, the role of cholinergic signaling in established PDAC was investigated using the KPC mouse model, which develops PDAC at a median age of 17-19 weeks^2, 29. KPC mice with pancreatic tumors that measured 3-5 mm in diameter on ultrasound were randomized to treatment with gemcitabine (GEM) alone, or GEM+bethanechol (FIG. 8I).
LSL-Kras^+/LSL-G12D, LSL-Trp53^+/R172H, and Pdx1-Cre mice were bred by Dr. Kenneth P. Olive and co-workers. Chrm1KO mice (C57BL/6-Chrm1tm1 Stl/J, (M1RKO) mice^1 were purchased from the Jackson Laboratory. KC mice and KPC mice were crossed with M1RKO mice. In the vagotomy experiments, KC mice received pyloroplasty with or without vagotomy at 8 weeks, and some KC+VxPP mice were treated with bethanechol ([…] in drinking water) immediately after surgery and then sacrificed at 20 weeks. KPC mice in treatment studies were palpated weekly for tumors in the pancreas. Once a tumor was suspected, KPC mice were screened by VEVO 2100—Ultrasound Imaging System (FUJIFILM VisualSonics) for pancreatic cancer. KPC mice were treated with gemcitabine, given by i.p. injection 100 mg/kg biweekly, with or without bethanechol, when a tumor size of 3-5 mm was detected using ultrasound. Mice were sacrificed when the mice were moribund. NOD/SCID mice were implanted with Panc1 cells subcutaneously and sacrificed at 30 days after implantation. For liver metastatic experiments, WT type C57/B6 mice received a splenic injection of labeled Panc02 cells, followed by hemi-splenectomy. The mice were then divided into three groups. […] Mice were then sacrificed when moribund. At necropsy, hepatic metastases that could clearly be identified as tumor nodules on gross inspection were separated. All animal studies and procedures were approved by the IACUC committee at Columbia University. All mice were bred under specific pathogen free conditions. Comparisons were made with age- and sex-matched control animals.
CD44, p-EGFR, p-PI3K, p-ERK, and Ki67 positive cells were quantified in at least five high power fields from at least 3 mice per group. Total cells per field were counted via morphometric analysis using ImageJ and the ratio of positive cells to total cell number calculated.

[5] = Panc1 cells, pilocarpine, preliminary analysis
[6] = Panc-1 cells treated with pilocarpine

| SMILES | sphere forming capacity / growth of WT spheres [1] | colonies / sphere formation in soft agar (Panc1 cells [2]) | CD44+CD24+EpCAM+ cancer stem cell population (FACS) [3] | CD44+CD24+EpCAM+ cancer stem cell population (FACS) ([3]; listed as Pilocarpine) | suppression of CD44+CD24+EpCAM+ cancer stem cells ([3]; pilocarpine at doses of 100-500 rμM, preliminary studies) | Chrm1 expression (CHRM1) | expression of growth related genes EGFR and PI3K (RNAseq) (Panc1 cells [4]; Panc1 cells, pilocarpine 1 mM, 72 hrs) | expression of PIK3CA(PI3K), EGFR, KDR(RTK), ITGAV(ITGA), NTRKB(TRKB) and BRAF(RafB) (RNAseq, KEGG pathways) (Panc1 cells [4]; Panc1 cells, pilocarpine treated vs untreated) | expression of BDNF and NGF (Panc1 cells [4]; [5]) | expression of TRK-B receptor (NTRK2) (Panc1 cells [4]; [5]) | expression of BRAF, EGFR, PIK3CA, ITGAV, KDR, and FOXO3 (RNAseq) (Panc1 cells [4]; [6]) | expression of STK11 and FOX06 (RNAseq) (Panc1 cells [4]; [6]) | overall survival (in words) (KPC mice) | overall survival (in words) (KPC mice; listed as Bethanechol) | expression of p-EGFR, p-PI3K and p-ERK1/2 (immunohistochemical staining) (KPC mice; pancreata of KPC mice treated with bethanechol) |
| --- | --- | --- | --- | --- | --- | --- | --- | --- | --- | --- | --- | --- | --- | --- | --- |
| CC[C@@H]1C(=O)OC[C@@H]1Cc1cncn1C [pilocarpine, (3S,4R)-3-ethyl-4-[(3-methylimidazol-4-yl)methyl]oxolan-2-one] | stimulates | significantly fewer | marked suppression; also recorded: reduced; also recorded: Dose dependent decrease | remarkable suppression | > 50% | decreased; also recorded: lower | suppressed | downregulated | moderately decreased | one of the most downregulated genes | downregulation | upregulation |  |  |  |
| CC(C[N+](C)(C)C)OC(N)=O (stereo not shown) [bethanechol, 2-[(aminocarbonyl)oxy]-N,N,N-trimethyl-1-propanaminium] | increased |  |  |  |  |  |  |  |  |  |  |  | extended significantly; also recorded: significantly extended | significantly extended; also recorded: prolongs | suppressed; also recorded: significantly downregulated |

Source: patent US11344534B2, “Cholinergic agonism for the treatment of pancreatic cancer” (priority 2017, dated 2022)
